# Measurements from patent US9353075B2, “Disubstituted beta-lactones as inhibitors of N-acylethanolamine acid amidase (NAAA)” (The Regents of the University of California, priority 2011, dated 2016).
# Entries after “also recorded” stand apart in the source; their conditions may differ.
# Legend:
# r-NAAA = r-NAAA (Rattus norvegicus (Rat), UniProt Q5KTC7); assay: r-NAAA inhibition, rat lung lysosomal NAAA preparation, UPLC/MS; format: biochemical
# In short: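 Substrate was 50 μM heptadecenoylethanolamide, incubated 30 min at 37 °C after a 30 min compound preincubation at pH 4.5 with 1% Triton-X and 3 mM DTT. The enzyme source was rat lung lysosomal preparation. IC50 came from curve fitting of reduced heptadecenoic acid product, measured by negative-mode UPLC/MS versus vehicle.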
# h-NAAA = h-NAAA (Homo sapiens (Human), UniProt Q02083); assay: Fluorogenic h-NAAA assay; format: biochemical
# h-NAAA, sequence (Q02083 29-359): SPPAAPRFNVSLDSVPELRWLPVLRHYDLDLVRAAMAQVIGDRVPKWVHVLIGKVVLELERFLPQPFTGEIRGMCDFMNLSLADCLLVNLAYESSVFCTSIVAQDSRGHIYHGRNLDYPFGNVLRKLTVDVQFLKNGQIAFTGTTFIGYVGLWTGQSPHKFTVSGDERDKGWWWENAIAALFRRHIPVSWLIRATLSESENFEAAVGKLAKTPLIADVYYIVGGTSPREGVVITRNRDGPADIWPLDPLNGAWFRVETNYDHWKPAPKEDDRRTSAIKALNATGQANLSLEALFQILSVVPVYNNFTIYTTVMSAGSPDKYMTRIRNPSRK
# Protocol: (§1) The assay was run in Optiplate 96-wells black plates, in a total reaction volume of 200 mL. NAAA protein preparations (4 ng) were pre-incubated for 10 minutes with various concentrations of test compounds or vehicle control (5% DMSO) in 100 mM citrate/phosphate buffer (pH 4.5) containing 3.0 mM DTT, 0.1% Triton X-100, 0.05% BSA, 150 mM NaCl. N-(4-methyl-2-oxo-chromen-7-yl)-hexadecanamide was used as a substrate (5.0 μM) and the reaction carried over for 30 minutes at 37° C. Fluorescence in the samples was quantified in a Perkin Elmer Envision plate reader using an excitation wavelength of 360 nm and emission 460 nm. IC50 values were calculated by non-linear regression analysis of log [concentration]/inhibition curves using GraphPad Prism 5 (GraphPad Software Inc., CA—USA) applying a standard slope curve fitting.
# as §1, with “μL.” for “mL.”, “preparation (4.0 μg) was” for “preparations (4 ng) were”, “min” for “minutes”, “The” for “Fluorescence in the”, “were then read” for “was quantified”
# [1] = test system: carrageenan-induced paw edema and hyperalgesia; assay: Carrageenan-induced inflammatory responses in mice; format: in vivo, mouse
# Protocol: The Methods include the following: Carragenan (1%) was injected into the left hind paw of Swiss albino mice. Paw edema was measured using a plethysmomether. Cutaneous hyperalgesia (thermal) was assesed by the plantar test (see Hargreaves K, et a 1 (1988), Pain 32: 77-88). Compound 6 was administered topically.
# [2] = test system: IL-4, IL-5, IFN-g, and IgE blood levels; assay: Immune response in DNFB-induced dermatitis; format: in vivo, mouse; conditions: mice, topical
# Protocol: The methods include the following. Dermatitis in mice was induced with 2-4 Dinitrofluorobenzene (DNFB) as previously described. IL-4, IL-5, IFN-g, and IgE blood levels were determined by immunoassays. The effect of compound 6 was tested using a single treatment protocol.
# DNFB-induced scratching = DNFB-induced scratching in mice; format: in vivo, mouse; conditions: topical, single dose
# Protocol: The methods included the following. Dermatitis was produced in mice using 2-4 dinitrofluorobenzene (DNFB) as described by Buckley and Nijkamp (1994), Am J Respir Grit Care Med 149:400-7. Mice were sensitized on two consecutive days with a 0.5% DNFB solution applied to the shaved abdomen. At day 8, the ears were challenged with a 0.2% DNFB solution. Ear thickness was determined by using a micrometer. Scratching was evaluated as number of episodes per 60 minutes period. Data were analysed by ANOVA followed by the Bonferroni's test. See also Hargreaves K, et al (1988), Pain 32: 77-88 for related information.
# The methods include the following. Itching in mice was induced with DNFB as previously described. Additional studies were done with 48/80 model (an inducer of mast cell degranulation). 48/80 was given subcutaneously (30 mg per kg). Data were analysed by ANOVA followed by Bonferroni's test for multiple comparisons.
# [3] = compound 6 30% topical, antagonists 1 μg/paw intraplantar
# r-NAAA, sequence (Q5KTC7 34-362): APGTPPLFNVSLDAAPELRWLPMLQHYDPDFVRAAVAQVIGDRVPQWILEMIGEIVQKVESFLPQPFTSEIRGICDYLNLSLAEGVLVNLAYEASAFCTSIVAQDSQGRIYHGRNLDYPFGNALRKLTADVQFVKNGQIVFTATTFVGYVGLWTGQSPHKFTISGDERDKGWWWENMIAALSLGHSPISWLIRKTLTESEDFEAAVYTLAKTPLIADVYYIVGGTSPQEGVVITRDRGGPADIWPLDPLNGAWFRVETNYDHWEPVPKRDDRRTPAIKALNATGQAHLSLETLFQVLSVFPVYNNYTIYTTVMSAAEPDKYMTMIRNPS
structure (smiles),measurement,setting,value
"C[C@@H]1OC(=O)[C@@H]1NC(=O)OCCCCCc1ccccc1 [Example 6, 5-phenylpentyl-[(2S,3R)-2-methyl-4-oxooxetan-3-yl]-carbamate]",IC50,r-NAAA,50 nM
same,IC50,h-NAAA,14 nM
same,Anti-inflammatory effect on cutaneous hyperalgesia with receptor antagonists,[1]; [3],"blocked by PPAR-α antagonists, but not by CB1 or CB2 receptor antagonists"
same,Anti-inflammatory effect on paw edema with receptor antagonists,[1]; [3],"blocked by PPAR-α antagonists, but not by CB1 or CB2 cannabinoid receptor antagonists"
same,Carrageenan-induced paw edema,"[1]; mice, topical",marked anti-inflammatory
same,Carrageenan-induced hyperalgesia,"[1]; mice, topical, 90 min after carrageenan",dose-dependently reduces carrageenan-induced hyperalgesia; also recorded: anti-hyperalgesic effects
same,Anti-inflammatory effects on paw edema and cutaneous hyperalgesia in mice lacking PPAR-α,"[1]; topical, 90 min after carrageenan",absent in mice lacking PPAR-α
same,"Dose range of full efficacy on immune response, single administration",[2],1 to 30%
same,Effect on immune response compared with steroids,[2],superior to that of steroids
same,Immunological responses in DNFB dermatitis,[2],normalizes compromised immunological responses
same,DNFB-induced IFN-γ decrease,[2]; single dosing,reverses DNFB-induced IFN-γ decrease
same,DNFB-induced IL-4 increase,[2]; single dosing,reverses DNFB-induced IL-4 increase
same,DNFB-induced IL-5 increase,[2]; single dosing,reverses DNFB-induced IL-5 increase
same,DNFB-induced IgE increase,[2]; single dosing,reverses DNFB-induced IgE increase
same,DNFB-induced scratching,DNFB-induced scratching,prevents DNFB-induced scratching; also recorded: prevented itching
same,"Dose of full effect, DNFB-induced scratching",DNFB-induced scratching,1-3%
same,"Lowest effective dose, DNFB-induced scratching",DNFB-induced scratching,0.001%
